Several values for one entry are separate records, joined by “and”; a condition that tells them apart may be missing. Equal entries are not always repeated. Inconclusive results and toxic doses are left out.
Test system: P388 leukemia ip, CD2F1 mice, survival T/C
Assay: NCI In Vivo Anticancer Drug Screen. Data for tumor model P388 Leukemia (intraperitoneal) in CD2F1 (CDF1) mice
Conditions: endpoint: median survival time, higher = longer survival
Procedure, shortened: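 Mice carrying the transplanted tumor received test compound or vehicle. Survival was recorded in each group, and the value is the treated-group measurement divided by that of the vehicle-treated control group.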

[1] = dose: 60.0 mg/kg/injection, schedule: Q01DX005 (ip), vehicle: saline
[2] = dose: 120.0 mg/kg/injection, schedule: Q01DX005 (ip), vehicle: saline
[3] = dose: 50.0 mg/kg/injection, schedule: Q01DX009 (ip), vehicle: saline with Tween-80
[4] = dose: 100.0 mg/kg/injection, schedule: Q01DX009 (ip), vehicle: saline with Tween-80
[5] = dose: 200.0 mg/kg/injection, schedule: Q01DX009 (ip), vehicle: saline with Tween-80
[6] = dose: 50.0 mg/kg/injection, schedule: Q01DX009 (ip), vehicle: Klucel (hydroxypropylcellulose) (HPC)
[7] = dose: 60.0 mg/kg/injection, schedule: Q01DX005 (ip), vehicle: saline with Tween-80
[8] = dose: 120.0 mg/kg/injection, schedule: Q01DX005 (ip), vehicle: saline with Tween-80
[9] = dose: 240.0 mg/kg/injection, schedule: Q01DX005 (ip), vehicle: saline with Tween-80
[10] = dose: 50.0 mg/kg/injection, schedule: Q01DX005 (ip), vehicle: saline with Tween-80
[11] = dose: 50.0 mg/kg/injection, schedule: Q01DX005 (ip), vehicle: saline
[12] = dose: 100.0 mg/kg/injection, schedule: Q01DX005 (ip), vehicle: saline with Tween-80
[13] = dose: 200.0 mg/kg/injection, schedule: Q01DX005 (ip), vehicle: saline with Tween-80
[14] = dose: 12.5 mg/kg/injection, schedule: Q01DX009 (ip), vehicle: Klucel (hydroxypropylcellulose) (HPC)
[15] = dose: 25.0 mg/kg/injection, schedule: Q01DX009 (ip), vehicle: Klucel (hydroxypropylcellulose) (HPC)

For CCCC1(c2ccccc2)CC(=O)NC1=O (centres undefined), the T/C [1] was 98 % of control, the T/C [2] was 98 % of control and the T/C (dose: 240.0 mg/kg/injection, schedule: Q01DX005 (ip), vehicle: saline) was 102 % of control.

With COc1cc2c(c3oc4c(O)cccc4c(=O)c13)CC(C(C)(O)CO)O2 (centres undefined) the T/C (dose: 3.5 mg/kg/injection, schedule: Q01DX005 (ip), vehicle: Klucel (hydroxypropylcellulose) (HPC)) was 105 % of control, the T/C (dose: 7.0 mg/kg/injection, schedule: Q01DX005 (ip), vehicle: Klucel (hydroxypropylcellulose) (HPC)) was 96 % of control and the T/C (dose: 14.0 mg/kg/injection, schedule: Q01DX005 (ip), vehicle: Klucel (hydroxypropylcellulose) (HPC)) was 96 % of control. The T/C (dose: 28.0 mg/kg/injection, schedule: Q01DX005 (ip), vehicle: Klucel (hydroxypropylcellulose) (HPC)) was 92 % of control.

In the case of COC(=O)C(=O)c1cc(=O)[nH]c(NC(C)=O)n1, the T/C (dose: 100.0 mg/kg/injection, schedule: Q01DX001 (ip), vehicle: saline with Tween-80) is reported as 107 % of control, the T/C (dose: 200.0 mg/kg/injection, schedule: Q01DX001 (ip), vehicle: saline with Tween-80) is reported as 101 % of control and the T/C (dose: 400.0 mg/kg/injection, schedule: Q01DX001 (ip), vehicle: saline with Tween-80) is reported as 107 % of control.

CC(C)=Nc1c(C(N)=O)c(-c2ccccc2)c(-c2ccccc2)n1-c1ccccc1 was tested, and the T/C [3] was 107 % of control, the T/C [4] was 107 % of control and the T/C [5] was 98 % of control.

For O=c1c(Br)cc(CN2CCOCC2)cc(CN2CCOCC2)c1O, the T/C [3] was 112 % of control and the T/C [4] was 116 % of control.

C=C1C(=O)OC(C)(C)C1c1ccccc1 (centres undefined) was tested, and the T/C [6] was 96 % of control and the T/C (dose: 100.0 mg/kg/injection, schedule: Q01DX009 (ip), vehicle: Klucel (hydroxypropylcellulose) (HPC)) was 90 % of control.

In the case of COc1ccc(CC(N)c2ccc(OC)c(OC)c2)cc1O (centres undefined), the T/C [7] is reported as 114 % of control, the T/C [8] is reported as 100 % of control and the T/C [9] is reported as 97 % of control.

O=C(O)Cc1ccc2c(c1O)C(=O)c1ccccc1C2=O was tested, and the T/C (dose: 12.5 mg/kg/injection, schedule: Q01DX005 (ip), vehicle: saline) was 98 % of control, the T/C (dose: 25.0 mg/kg/injection, schedule: Q01DX005 (ip), vehicle: saline) was 104 % of control and the T/C [10] was 112 % of control. For the same molecule, the T/C [11] was 107 % of control.

For O=[N+]([O-])C(Cc1ccccc1)Cc1ccccc1, the T/C [10] was 98 % of control, the T/C [12] was 103 % of control and the T/C [13] was 97 % of control.

With CN(C)C1C(O)C2Oc3c(cc(O)c4c3C(=O)c3cc5c(c(O)c3C4=O)C(N)CC(C)(O)C5)C(C)(O2)C1O (centres undefined) the T/C (dose: 5.0 mg/kg/injection, schedule: Q01DX009 (ip), vehicle: other) was 118 % of control.

For NCCCC(C(=O)O)N(C(=O)OCc1ccccc1)C(=O)OCc1ccccc1 (centres undefined), the T/C [10] was 97 % of control, the T/C [12] was 101 % of control and the T/C [13] was 90 % of control.

For CS(=O)(=O)OC1C(COC(=O)c2ccccc2)OC(n2ccc(=O)[nH]c2=O)C1O (centres undefined), the T/C [11] was 100 % of control, the T/C (dose: 100.0 mg/kg/injection, schedule: Q01DX005 (ip), vehicle: saline) was 101 % of control and the T/C (dose: 200.0 mg/kg/injection, schedule: Q01DX005 (ip), vehicle: saline) was 101 % of control.

CC1CCC(c2ccccc2)(c2ccccc2)C1=O (centres undefined) was tested, and the T/C (dose: 100.0 mg/kg/injection, schedule: Q01DX001 (ip), vehicle: Klucel (hydroxypropylcellulose) (HPC)) was 96 % of control, the T/C (dose: 200.0 mg/kg/injection, schedule: Q01DX001 (ip), vehicle: Klucel (hydroxypropylcellulose) (HPC)) was 100 % of control and the T/C (dose: 400.0 mg/kg/injection, schedule: Q01DX001 (ip), vehicle: Klucel (hydroxypropylcellulose) (HPC)) was 96 % of control.

With CCOC(=O)N1c2ccccc2C=CC1OCC (centres undefined) the T/C (dose: 6.0 mg/kg/injection, schedule: Q04DX003 (ip), vehicle: other) was 95 % of control, the T/C (dose: 12.0 mg/kg/injection, schedule: Q04DX003 (ip), vehicle: other) was 100 % of control and the T/C (dose: 25.0 mg/kg/injection, schedule: Q04DX003 (ip), vehicle: other) was 100 % of control.

For CCCCCCCCCCCC[N+]1(CC)CCCC1, the T/C (dose: 1.56 mg/kg/injection, schedule: Q01DX009 (ip), vehicle: saline) was 100 % of control, the T/C (dose: 3.12 mg/kg/injection, schedule: Q01DX009 (ip), vehicle: saline) was 98 % of control and 92 % of control and the T/C (dose: 6.25 mg/kg/injection, schedule: Q01DX009 (ip), vehicle: saline) was 86 % of control.

For CCCCCC1=C/N\C(C#N)=C(C#N)/N=C/C(CCCCC)=C\N\C(C#N)=C(C#N)/N=C\1, the T/C (dose: 6.25 mg/kg/injection, schedule: Q01DX009 (ip), vehicle: Klucel (hydroxypropylcellulose) (HPC)) was 93 % of control, the T/C [14] was 93 % of control and the T/C [15] was 93 % of control.

For Cc1nn(CC(=O)O)c(=O)c(C#N)c1-c1ccccc1, the T/C (dose: 62.5 mg/kg/injection, schedule: Q04DX002 (ip), vehicle: other) was 116 % of control, the T/C (dose: 125.0 mg/kg/injection, schedule: Q04DX002 (ip), vehicle: other) was 102 % of control and the T/C (dose: 250.0 mg/kg/injection, schedule: Q04DX002 (ip), vehicle: other) was 115 % of control. The T/C (dose: 500.0 mg/kg/injection, schedule: Q04DX002 (ip), vehicle: other) was 109 % of control.

In the case of O=[N+]([O-])c1ccc(/C=N/O)s1, the T/C [14] is reported as 109 % of control, the T/C [15] is reported as 101 % of control and the T/C [6] is reported as 108 % of control.

For CCCCN1C(=O)CC(SC2CC(=O)N(CCCC)C2=O)C1=O (centres undefined), the T/C (dose: 50.0 mg/kg/injection, schedule: Q01DX005 (ip), vehicle: Klucel (hydroxypropylcellulose) (HPC)) was 97 % of control, the T/C (dose: 100.0 mg/kg/injection, schedule: Q01DX005 (ip), vehicle: Klucel (hydroxypropylcellulose) (HPC)) was 86 % of control and the T/C (dose: 200.0 mg/kg/injection, schedule: Q01DX005 (ip), vehicle: Klucel (hydroxypropylcellulose) (HPC)) was 103 % of control.

For CC(C)N1C(C)(C)C1(C)C#N (centres undefined), the T/C [1] was 100 % of control and the T/C [2] was 104 % of control.

For O=C(CBr)N1c2ccccc2S(=O)(=O)c2ccc3ccccc3c21, the T/C [6] was 116 % of control and 122 % of control and the T/C (dose: 200.0 mg/kg/injection, schedule: Q01DX009 (ip), vehicle: Klucel (hydroxypropylcellulose) (HPC)) was 119 % of control.

In the case of CCNc1nc(NC(C)C)nc(SC)n1, the T/C (dose: 50.0 mg/kg/injection, schedule: Q04DX003 (ip), vehicle: saline with Tween-80) is reported as 91 % of control, the T/C (dose: 100.0 mg/kg/injection, schedule: Q04DX003 (ip), vehicle: saline with Tween-80) is reported as 100 % of control and the T/C (dose: 200.0 mg/kg/injection, schedule: Q04DX003 (ip), vehicle: saline with Tween-80) is reported as 87 % of control.

For CCCCN=C(N)N/N=C(\C)c1cccc2c1Cc1c(/C(C)=N/NC(N)=NCCCC)cccc1-2, the T/C (dose: 12.5 mg/kg/injection, schedule: Q04DX002 (ip), vehicle: saline with Tween-80) was 108 % of control.

For CNC(=O)OCc1snc(-c2ccccc2)c1COC(=O)NC, the T/C (dose: 12.5 mg/kg/injection, schedule: Q01DX005 (ip), vehicle: distilled water + Tween-80) was 99 % of control, the T/C (dose: 25.0 mg/kg/injection, schedule: Q01DX005 (ip), vehicle: distilled water + Tween-80) was 101 % of control and the T/C (dose: 50.0 mg/kg/injection, schedule: Q01DX005 (ip), vehicle: distilled water + Tween-80) was 99 % of control. For the same molecule, the T/C (dose: 100.0 mg/kg/injection, schedule: Q01DX005 (ip), vehicle: distilled water + Tween-80) was 96 % of control and the T/C (dose: 200.0 mg/kg/injection, schedule: Q01DX005 (ip), vehicle: distilled water + Tween-80) was 108 % of control.

With CC1(C)CC(C)(OC(=O)c2ccc(Cl)cc2)N=N1 (centres undefined) the T/C (dose: 12.5 mg/kg/injection, schedule: Q01DX009 (ip), vehicle: saline with Tween-80) was 104 % of control, the T/C (dose: 25.0 mg/kg/injection, schedule: Q01DX009 (ip), vehicle: saline with Tween-80) was 103 % of control and the T/C [3] was 99 % of control. The T/C [4] was 99 % of control and the T/C [5] was 98 % of control.

For CCC1=C[C@H]2CN(CCc3c([nH]c4ccccc34)[C@@](C(=O)OC)(c3cc4c(cc3OC)N(C)[C@H]3[C@@](O)(C(=O)NCCSC)[C@H](O)[C@]5(CC)C=CCN6CC[C@]43[C@@H]65)C2)C1, the T/C (dose: 0.5 mg/kg/injection, schedule: Q01DX001 (ip), vehicle: water) was 117 % of control, the T/C (dose: 2.0 mg/kg/injection, schedule: Q01DX001 (ip), vehicle: water) was 118 % of control and the T/C (dose: 16.0 mg/kg/injection, schedule: Q01DX001 (ip), vehicle: water) was 154 % of control and 168 % of control. The T/C (dose: 32.0 mg/kg/injection, schedule: Q01DX001 (ip), vehicle: water) was 191 % of control.

c1ccc(N=Nc2ccc3ns[s+]c3c2)cc1 was tested, and the T/C [7] was 92 % of control, the T/C [8] was 95 % of control and the T/C [9] was 103 % of control.

For S=c1[nH]c(=S)c2[nH]cnc2[nH]1, the T/C [10] was 102 % of control, the T/C [12] was 100 % of control and the T/C [13] was 100 % of control.
